Test results from patent publication US20210038579A1, “Treatment Of Patients With Classic Fabry Disease” (Amicus Therapeutics, Inc., priority 2018, published 2021).
Numbering of substitutions follows the chain as printed.

What was measured:
Assay in all cases: HEK assay: α-Gal A activity in HEK-293 cell lysate with migalastat
Type in all cases: cell-based
[1] = target: T1, α-Gal A mutant form p.Cys174Arg (c.520 T > C) (Homo sapiens, UniProt P06280, C174R)
T1 construct: expressed in transfected cells; host or cells: HEK-293
T1 sequence (P06280 32-429 C174R): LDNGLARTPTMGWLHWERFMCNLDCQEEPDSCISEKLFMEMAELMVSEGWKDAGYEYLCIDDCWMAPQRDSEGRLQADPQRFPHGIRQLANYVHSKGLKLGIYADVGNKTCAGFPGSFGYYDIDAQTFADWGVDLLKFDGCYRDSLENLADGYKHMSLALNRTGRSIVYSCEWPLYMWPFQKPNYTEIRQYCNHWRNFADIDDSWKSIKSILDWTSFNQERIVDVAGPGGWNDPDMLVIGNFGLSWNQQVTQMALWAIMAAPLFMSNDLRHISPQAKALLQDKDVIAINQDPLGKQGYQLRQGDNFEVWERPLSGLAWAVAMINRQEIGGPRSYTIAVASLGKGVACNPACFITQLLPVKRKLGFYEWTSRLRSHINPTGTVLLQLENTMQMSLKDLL
Summary of the method: (§1)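 HEK-293 cells are transfected transiently with cDNA for each missense or small in-frame indel α-Gal A mutant. They are cultured ±migalastat across 17 nM to 1 mM over 4 to 5 days, after which lysate enzyme is quantified fluorogenically (4-MU-α-Gal) or by immunoblot.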

[2] = target: T2, α-Gal A mutant form p.Asp33Gly (c.98 A > G) (Homo sapiens, UniProt P06280, D33G)
T2 construct: expressed in transfected cells; host or cells: HEK-293
T2 sequence (P06280 32-429 D33G): T1 sequence (P06280 32-429 C174R) with D2G, R143C
Summary of the method: as §1

[3] = target: T3, α-Gal A mutant form p.Leu300Pro (c.899 T > C) (Homo sapiens, UniProt P06280, L300P)
T3 construct: expressed in transfected cells; host or cells: HEK-293
T3 sequence (P06280 32-429 L300P): T1 sequence (P06280 32-429 C174R) with R143C, L269P
Summary of the method: as §1

[4] = target: T4, α-Gal A mutant form p.Ala156Thr (c.466 G > A) (Homo sapiens, UniProt P06280, A156T)
T4 construct: expressed in transfected cells; host or cells: HEK-293
T4 sequence (P06280 32-429 A156T): T1 sequence (P06280 32-429 C174R) with A125T, R143C
Summary of the method: as §1

[5] = target: T5, α-Gal A mutant form p.Gly271Ser; Asp313Tyr (c.811 G > A; c.937 G > T) (Homo sapiens, UniProt P06280, D313Y/G271S)
T5 construct: expressed in transfected cells; host or cells: HEK-293
T5 sequence (P06280 32-429 G271S/D313Y): T1 sequence (P06280 32-429 C174R) with R143C, G240S, D282Y
Summary of the method: as §1

[6] = +10 μM migalastat, HEK-293 cell lysate, mean ± SEM, n = 20
[7] = HEK293, 10 μM migalastat minus baseline, read-out: Absolute increase at 10 μM (% WT)

OC[C@H]1NC[C@H](O)[C@@H](O)[C@H]1O [migalastat]
α-Gal A activity at 10 μM (fold over baseline) ([1]; 10 μM migalastat): 3.53 fold over baseline | +Migalastat α-Gal A activity [1, 6]: 16505 ± 393 nmol/mg/h | +Migalastat α-Gal A activity % WT [1, 6]: 51.6 ± 2.0 % WT | activation at 10 µM [1, 7]: 37.4% | α-Gal A activity at 10 μM (fold over baseline) ([2]; 10 μM migalastat): 2.42 fold over baseline | +Migalastat α-Gal A activity [2, 6]: 24033 ± 865 nmol/mg/h | +Migalastat α-Gal A activity % WT [2, 6]: 70.6 ± 2.4 % WT | activation at 10 µM [2, 7]: 41.3% | α-Gal A activity at 10 μM (fold over baseline) ([3]; 10 μM migalastat): 10.35 fold over baseline | +Migalastat α-Gal A activity [3, 6]: 13219 ± 412 nmol/mg/h | +Migalastat α-Gal A activity % WT [3, 6]: 37.9 ± 1.2 % WT | activation at 10 µM [3, 7]: 34.2% | α-Gal A activity at 10 μM (fold over baseline) ([4]; 10 μM migalastat): 7.75 fold over baseline | +Migalastat α-Gal A activity [4, 6]: 7034 ± 289 nmol/mg/h | +Migalastat α-Gal A activity % WT [4, 6]: 21.9 ± 0.9 % WT | activation at 10 µM [4, 7]: 19.1% | Absolute increase at 10 μM (% WT) ([5]; 10 μM migalastat minus baseline): 3.0 % WT | +Migalastat α-Gal A activity [5, 6]: 877 ± 18 nmol/mg/h | +Migalastat α-Gal A activity % WT [5, 6]: 3.0 ± 0.2 % WT
